Laboratory results reported in ChEMBL document CHEMBL6127041, “Dual-target inhibitors based on acetylcholinesterase: Novel agents for Alzheimer's disease” (Eur J Med Chem, 2024).

Assays:
Acetylcholinesterase [1] = target: T1, Acetylcholinesterase (Homo sapiens, UniProt P22303); assay: Inhibition of AChE (unknown origin) by Ellman's method
[2] = target: T2, Glycogen synthase kinase-3 beta (Homo sapiens, UniProt P49841); assay: Inhibition of human recombinant GSK3beta by ADP-Glo Kinase Assay
Acetylcholinesterase [3] = target: T1, Acetylcholinesterase
[4] = target: T3, Amine oxidase [flavin-containing] A (Homo sapiens, UniProt P21397); assay: Inhibition of MAO-A (unknown origin)
T3 sequence (P21397 whole entry): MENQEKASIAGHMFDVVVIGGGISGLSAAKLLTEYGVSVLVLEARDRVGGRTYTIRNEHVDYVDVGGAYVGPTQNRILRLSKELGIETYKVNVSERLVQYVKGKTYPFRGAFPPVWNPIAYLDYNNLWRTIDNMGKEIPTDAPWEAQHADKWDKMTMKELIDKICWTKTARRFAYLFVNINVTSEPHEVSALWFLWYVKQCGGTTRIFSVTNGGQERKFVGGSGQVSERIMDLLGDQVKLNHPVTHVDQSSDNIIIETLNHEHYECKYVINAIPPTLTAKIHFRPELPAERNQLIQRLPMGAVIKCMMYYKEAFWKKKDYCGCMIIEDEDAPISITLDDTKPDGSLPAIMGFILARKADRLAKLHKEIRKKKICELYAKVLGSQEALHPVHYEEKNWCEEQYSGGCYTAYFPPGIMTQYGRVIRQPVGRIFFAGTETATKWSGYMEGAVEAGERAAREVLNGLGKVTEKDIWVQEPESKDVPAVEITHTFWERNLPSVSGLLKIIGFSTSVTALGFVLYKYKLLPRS

[5] = target: T4, Amine oxidase [flavin-containing] B (Homo sapiens, UniProt P27338); assay: Inhibition of MAO-B (unknown origin)
T4 sequence (P27338 whole entry): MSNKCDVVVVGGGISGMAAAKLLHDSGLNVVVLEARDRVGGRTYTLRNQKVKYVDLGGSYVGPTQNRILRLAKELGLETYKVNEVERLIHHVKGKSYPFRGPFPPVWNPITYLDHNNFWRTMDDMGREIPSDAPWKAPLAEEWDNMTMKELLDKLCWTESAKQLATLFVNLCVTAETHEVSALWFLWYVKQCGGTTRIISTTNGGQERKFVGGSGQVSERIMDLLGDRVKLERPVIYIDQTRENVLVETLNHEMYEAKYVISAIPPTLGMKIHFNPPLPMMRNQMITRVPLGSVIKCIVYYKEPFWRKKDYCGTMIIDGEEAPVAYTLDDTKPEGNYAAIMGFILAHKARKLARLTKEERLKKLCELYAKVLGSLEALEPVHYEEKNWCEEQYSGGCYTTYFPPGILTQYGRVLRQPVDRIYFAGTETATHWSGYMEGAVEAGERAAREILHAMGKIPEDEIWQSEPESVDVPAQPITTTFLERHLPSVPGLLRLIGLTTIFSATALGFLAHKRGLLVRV

Acetylcholinesterase [6] = target: T5, Acetylcholinesterase (Electrophorus electricus, UniProt O42275); assay: Inhibition of electric eel AChE using acetylthiocholine iodide as substrate preincubated for 5 mins followed by substrate addition by DTNB reagent based Ellman's method
Cholinesterase = Cholinesterase (Homo sapiens, UniProt P06276); assay: Inhibition of BChE (unknown origin) incubated for 10 mins by Ellman's method
Acetylcholinesterase [7] = target: T1, Acetylcholinesterase; assay: Inhibition of AChE (unknown origin) incubated for 1 hr by Ellman's method
Beta-secretase 1 [8] = target: T6, Beta-secretase 1 (Homo sapiens, UniProt P56817); assay: Inhibition of BACE-1 (unknown origin)
[9] = Permeability of compound at pH 7.4 by PAMPA assay; format: ADME; settings: read-out: permeability
[10] = target: High affinity cGMP-specific 3',5'-cyclic phosphodiesterase 9A (Homo sapiens, UniProt O76083); assay: Inhibition of PDE9A (unknown origin)
Acetylcholinesterase [11] = target: T1, Acetylcholinesterase; assay: Inhibition of AChE (unknown origin)
[12] = target: T2, Glycogen synthase kinase-3 beta
Description: Inhibition of human GSK3beta by TR-FRET analysis

Acetylcholinesterase [13] = target: T5, Acetylcholinesterase; assay: Inhibition of electric eel AChE by Ellman's method
Acetylcholinesterase [14] = target: T1, Acetylcholinesterase; assay: Inhibition of AChE (unknown origin) using acetylthiocholine iodide as substrate measured after 15 mins by Ellman's method
Acetylcholinesterase [15] = target: T1, Acetylcholinesterase; assay: Inhibition of AChE (unknown origin) using acetylthiocholine iodide as substrate measured for 20 mins by Ellman's method
Acetylcholinesterase [16] = target: T1, Acetylcholinesterase; assay: Inhibition of human AChE using acetylthiocholine iodide as substrate after 15 mins by Ellman's method
Acetylcholinesterase [17] = target: T1, Acetylcholinesterase; assay: Inhibition of human AChE using acetylthiocholine iodide as substrate preincubated for 15 mins followed by substrate addition and measured for 30 mins by Ellman's method
Acetylcholinesterase [18] = target: T5, Acetylcholinesterase; assay: Inhibition of electric eel AChE using acetylthiocholine iodide as substrate preincubated with compounds for 20 mins followed by substrate addition and measured after 5 mins by Ellman's method
Beta-secretase 1 [19] = target: T6, Beta-secretase 1; assay: Inhibition of BACE-1 (unknown origin) measured after 2 hrs by FRET assay
Beta-secretase 1 [20] = target: T6, Beta-secretase 1; assay: Inhibition of BACE-1 (unknown origin) incubated for 60 mins by TR-FRET assay
Acetylcholinesterase [21] = target: T1, Acetylcholinesterase; remark: listed apart in the source
Description: Inhibition of human AChE by Ellman's method

[22] = target: T2, Glycogen synthase kinase-3 beta; assay: Inhibition of GSK3beta (unknown origin)

Sequence of Cholinesterase (P06276 whole entry): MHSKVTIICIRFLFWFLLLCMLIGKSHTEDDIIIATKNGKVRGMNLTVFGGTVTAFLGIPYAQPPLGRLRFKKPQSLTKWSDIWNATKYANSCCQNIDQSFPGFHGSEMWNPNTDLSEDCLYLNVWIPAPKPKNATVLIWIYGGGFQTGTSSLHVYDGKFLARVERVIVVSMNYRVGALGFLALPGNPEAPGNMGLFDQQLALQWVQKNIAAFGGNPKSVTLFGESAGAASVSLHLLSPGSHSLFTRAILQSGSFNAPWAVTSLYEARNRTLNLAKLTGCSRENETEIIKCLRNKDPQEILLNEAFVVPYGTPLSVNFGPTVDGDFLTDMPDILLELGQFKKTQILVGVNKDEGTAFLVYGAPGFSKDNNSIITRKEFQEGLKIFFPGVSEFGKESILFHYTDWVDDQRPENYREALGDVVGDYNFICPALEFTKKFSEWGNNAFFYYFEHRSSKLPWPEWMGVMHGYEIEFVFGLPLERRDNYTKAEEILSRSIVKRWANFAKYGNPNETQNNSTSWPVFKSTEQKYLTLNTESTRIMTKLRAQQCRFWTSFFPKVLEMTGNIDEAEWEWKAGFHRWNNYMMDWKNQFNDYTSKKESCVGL
T6 sequence (P56817 whole entry): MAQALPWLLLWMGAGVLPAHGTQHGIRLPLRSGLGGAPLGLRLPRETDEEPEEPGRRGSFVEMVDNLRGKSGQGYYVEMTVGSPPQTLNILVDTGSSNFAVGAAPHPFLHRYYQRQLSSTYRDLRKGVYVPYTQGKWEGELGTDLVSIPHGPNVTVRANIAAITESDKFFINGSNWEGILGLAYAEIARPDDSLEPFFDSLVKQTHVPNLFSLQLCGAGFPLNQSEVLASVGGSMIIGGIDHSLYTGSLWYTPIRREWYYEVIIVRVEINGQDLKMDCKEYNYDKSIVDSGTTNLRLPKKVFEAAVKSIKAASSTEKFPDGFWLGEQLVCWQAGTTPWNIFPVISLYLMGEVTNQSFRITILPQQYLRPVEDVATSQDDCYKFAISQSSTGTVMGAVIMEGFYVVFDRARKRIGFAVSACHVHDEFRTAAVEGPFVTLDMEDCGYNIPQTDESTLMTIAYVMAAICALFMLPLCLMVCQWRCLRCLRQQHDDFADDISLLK
T1 sequence (P22303 whole entry): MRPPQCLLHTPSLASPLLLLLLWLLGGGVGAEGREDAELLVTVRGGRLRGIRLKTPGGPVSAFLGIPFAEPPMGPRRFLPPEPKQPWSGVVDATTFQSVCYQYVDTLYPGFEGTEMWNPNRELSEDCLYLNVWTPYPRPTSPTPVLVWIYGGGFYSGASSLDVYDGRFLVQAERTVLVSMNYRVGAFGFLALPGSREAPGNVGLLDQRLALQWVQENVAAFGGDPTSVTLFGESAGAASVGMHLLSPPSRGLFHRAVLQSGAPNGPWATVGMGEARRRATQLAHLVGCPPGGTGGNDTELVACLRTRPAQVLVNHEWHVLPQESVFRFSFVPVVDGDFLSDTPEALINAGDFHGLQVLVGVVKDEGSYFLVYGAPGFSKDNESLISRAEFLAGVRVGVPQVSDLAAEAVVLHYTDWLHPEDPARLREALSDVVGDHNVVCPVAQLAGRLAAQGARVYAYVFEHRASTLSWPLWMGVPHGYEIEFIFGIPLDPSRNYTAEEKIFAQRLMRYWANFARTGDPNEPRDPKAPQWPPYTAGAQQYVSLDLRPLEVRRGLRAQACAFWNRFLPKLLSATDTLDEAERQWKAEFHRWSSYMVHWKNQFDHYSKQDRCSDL
T5 sequence (O42275 whole entry): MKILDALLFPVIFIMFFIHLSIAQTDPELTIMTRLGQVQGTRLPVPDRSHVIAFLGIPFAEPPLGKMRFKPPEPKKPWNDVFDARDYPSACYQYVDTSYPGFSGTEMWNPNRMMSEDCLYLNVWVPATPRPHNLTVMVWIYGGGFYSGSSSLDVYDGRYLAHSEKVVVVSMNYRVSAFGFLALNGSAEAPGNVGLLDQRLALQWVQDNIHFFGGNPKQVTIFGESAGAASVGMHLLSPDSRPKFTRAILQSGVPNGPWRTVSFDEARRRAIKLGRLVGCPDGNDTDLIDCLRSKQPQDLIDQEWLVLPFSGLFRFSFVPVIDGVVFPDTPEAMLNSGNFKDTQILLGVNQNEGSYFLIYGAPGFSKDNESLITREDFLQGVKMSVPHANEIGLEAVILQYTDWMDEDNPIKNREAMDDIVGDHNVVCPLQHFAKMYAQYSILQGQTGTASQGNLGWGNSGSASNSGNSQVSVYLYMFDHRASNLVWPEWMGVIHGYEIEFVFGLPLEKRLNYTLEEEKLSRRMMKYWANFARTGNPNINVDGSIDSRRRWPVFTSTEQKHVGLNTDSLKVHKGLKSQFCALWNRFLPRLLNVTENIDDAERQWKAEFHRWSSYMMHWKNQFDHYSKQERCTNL
T2 sequence (P49841 whole entry): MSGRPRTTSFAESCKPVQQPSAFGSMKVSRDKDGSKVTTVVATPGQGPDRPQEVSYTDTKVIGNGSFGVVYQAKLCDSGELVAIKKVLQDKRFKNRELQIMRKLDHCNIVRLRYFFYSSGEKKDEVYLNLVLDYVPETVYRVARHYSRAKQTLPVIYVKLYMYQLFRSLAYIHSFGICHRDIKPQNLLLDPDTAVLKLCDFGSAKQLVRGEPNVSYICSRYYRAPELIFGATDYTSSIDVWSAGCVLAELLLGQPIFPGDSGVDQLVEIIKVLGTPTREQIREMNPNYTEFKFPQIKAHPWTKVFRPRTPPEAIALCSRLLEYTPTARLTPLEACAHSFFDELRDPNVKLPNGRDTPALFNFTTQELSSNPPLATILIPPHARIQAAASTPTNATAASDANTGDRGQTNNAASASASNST
Sequence of High affinity cGMP-specific 3',5'-cyclic phosphodiesterase 9A (O76083 whole entry): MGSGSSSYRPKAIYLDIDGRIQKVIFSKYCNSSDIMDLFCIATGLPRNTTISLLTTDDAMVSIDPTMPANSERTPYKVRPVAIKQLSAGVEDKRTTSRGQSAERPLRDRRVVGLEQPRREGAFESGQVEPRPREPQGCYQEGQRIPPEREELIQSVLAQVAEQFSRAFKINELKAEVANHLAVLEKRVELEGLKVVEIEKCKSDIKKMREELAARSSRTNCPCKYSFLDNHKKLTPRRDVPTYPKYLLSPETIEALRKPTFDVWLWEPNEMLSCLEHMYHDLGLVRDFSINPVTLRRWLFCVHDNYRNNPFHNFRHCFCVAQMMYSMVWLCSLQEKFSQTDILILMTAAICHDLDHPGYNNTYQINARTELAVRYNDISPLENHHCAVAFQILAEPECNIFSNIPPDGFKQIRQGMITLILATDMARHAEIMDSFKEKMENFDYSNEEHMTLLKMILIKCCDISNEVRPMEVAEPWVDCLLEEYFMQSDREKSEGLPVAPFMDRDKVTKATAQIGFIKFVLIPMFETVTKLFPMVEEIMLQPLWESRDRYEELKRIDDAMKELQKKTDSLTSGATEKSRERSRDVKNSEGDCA

## O=C1[C@@H]2Cc3c([nH]c4ccccc34)[C@@H](c3ccc4c(c3)OCO4)N2C(=O)CN1CCC1CCN(Cc2ccccc2)CC1
Acetylcholinesterase [1]
  IC50: 30 nM

## COc1nc(-c2ccnc(NC(=O)C3CC3)c2)sc1C(=O)NCCNc1c2c(nc3ccccc13)CCCC2
[2]
  IC50: 66 nM
Acetylcholinesterase [3]
  IC50: 6.4 nM

## O=C(/C=C/c1ccc(F)cc1)c1ccc(Br)s1
[4]
  IC50: 4060 nM
[5]
  IC50: 1710 nM
Acetylcholinesterase [6]
  IC50: 18200 nM
Cholinesterase
  IC50: 16300 nM

## O=C(N/N=C/c1ccc([N+](=O)[O-])cc1)c1ccc(Cl)nc1
Acetylcholinesterase [7]
  IC50: 20 nM
Beta-secretase 1 [8]
  IC50: 200 nM

## CN1CC(=O)N2[C@H](c3ccc4c(c3)OCO4)c3[nH]c4ccccc4c3C[C@@H]2C1=O
[9]
  Papp at 18 h: 2.16 ×10⁻⁶ cm/s

## O=c1[nH]c(COCCC2CCN(Cc3ccccc3)CC2)nc2c1cnn2C1CCCC1
[10]
  IC50: 530 nM
Acetylcholinesterase [11]
  IC50: 230 nM

## COc1cc(/C=C/c2nnc(-c3ccc(C(F)(F)F)cc3)o2)ccc1O
[9]
  Papp at 18 h: 5.3 ×10⁻⁶ cm/s

## Cn1c(NCCCCCCCNc2c3c(nc4cc(Cl)ccc24)CCCC3)nc(-c2ccncc2F)cc1=O
Acetylcholinesterase [1]
  IC50: 51.1 nM

## O=CNc1nccc2c1[nH]c1cc(C(=O)NCCC3CCN(Cc4ccccc4F)CC3)ccc12
[12]
  IC50: 6780 nM
Acetylcholinesterase [13]
  IC50: 270 nM

## CSc1ccc(/C=C/C(=O)c2ccccc2N)cn1
Acetylcholinesterase [14]
  IC50: 1220 nM

## O=C(/C=C/c1ccc(Br)cc1)c1ccc(Cl)s1
[4]
  IC50: 1360 nM
[5]
  IC50: 700 nM
Acetylcholinesterase [6]
  IC50: 16200 nM
Cholinesterase
  IC50: 19300 nM

## COc1ccccc1/C=C1\Oc2cc(OCCN3CCCC3)ccc2C1=O
[4]
  IC50: > 100000 nM
[5]
  IC50: 980 nM
Acetylcholinesterase [15]
  IC50: 2670 nM

## CNC(=O)c1sc(-c2ccnc(NC(=O)C3CC3)c2)nc1OC1CCN(Cc2ccccc2)CC1
Acetylcholinesterase [16]
  IC50: 73 nM

## O=C1/C(=C/c2ccc(O)cc2)Oc2cc(O)ccc21
Acetylcholinesterase [17]
  IC50: 202000 nM

## CCOc1cc(/C=N/NC(=O)c2ccc(Cl)nc2)ccc1O
Acetylcholinesterase [7]
  IC50: 30 nM
Beta-secretase 1 [8]
  IC50: 700 nM

## CN(Cc1ccccc1)Cc1ccc(/C=C2/Cc3ccc(OCCCCCN4CCN(C(c5ccc(F)cc5)c5ccc(F)cc5)CC4)cc3C2=O)cc1
Acetylcholinesterase [18]
  IC50: 44.1 nM
Beta-secretase 1 [19]
  IC50: 341 nM

## COc1ccc(-c2ccccc2/C=C2/Cc3cc(OC)ccc3C2=O)cc1
Acetylcholinesterase [18]
  IC50: 21.2 nM
Beta-secretase 1 [19]
  IC50: 99.4 nM

## Nc1ccccc1C(=O)/C=C/c1cnc2ccccc2c1
Acetylcholinesterase [14]
  IC50: 540 nM
Beta-secretase 1 [20]
  IC50: 16900 nM

## O=C(CN1CCC(Cc2ccccc2)CC1)c1ccc2ccccc2c1
Acetylcholinesterase [21]
  IC50: 9130 nM

## CN1CCN(c2ccc(C(=O)/C=C/c3cc(Br)ccc3F)cc2)CC1
Cholinesterase
  IC50: 9440 nM

## Cn1c(NCC(=O)c2ccccc2)nc(-c2ccncc2)cc1=O
[22]
  IC50: 5630 nM

## Nc1ccccc1C(=O)/C=C/c1cnc2c(c1)OCO2
Acetylcholinesterase [14]
  IC50: 4160 nM

## COc1cc(/C=N/NC(=O)c2ccc(Cl)nc2)ccc1O
Acetylcholinesterase [7]
  IC50: 30 nM
Beta-secretase 1 [8]
  IC50: 600 nM

## COc1ccc(/C=C/C(=N/Oc2ccc(/C=C/C(=O)c3ccc(F)cc3)cc2)c2ccc(OC)cc2)cc1
[5]
  IC50: 20 nM

## O=C(/C=C/c1ccccc1)c1ccc(N2CCOCC2)cc1
[4]
  IC50: > 40000 nM
Cholinesterase
  IC50: > 40000 nM

## Nc1ccccc1C(=O)/C=C/c1ccc(Cl)nc1
Acetylcholinesterase [14]
  IC50: 19000 nM
Beta-secretase 1 [20]
  IC50: 8340 nM

## COc1nc(-c2ccnc(NC(=O)C3CC3)c2)sc1C(=O)NCNc1c2c(nc3ccccc13)CCCC2
[2]
  IC50: 68 nM
Acetylcholinesterase [3]
  IC50: 6.3 nM

## O=c1[nH]c(CCCCC2CCN(Cc3ccccc3)CC2)nc2c1cnn2C1CCCC1
[10]
  IC50: 280 nM
Acetylcholinesterase [11]
  IC50: 40 nM
